Source: BindingDB's records for doi:10.1002/(SICI)1098-2396(199702)25:2 (University of Toronto, 1997)
pKi: −log10 of the molar value.

Biological target: D(2) dopamine receptor (Mus musculus, UniProt P61168)
Sequence (P61168 whole entry): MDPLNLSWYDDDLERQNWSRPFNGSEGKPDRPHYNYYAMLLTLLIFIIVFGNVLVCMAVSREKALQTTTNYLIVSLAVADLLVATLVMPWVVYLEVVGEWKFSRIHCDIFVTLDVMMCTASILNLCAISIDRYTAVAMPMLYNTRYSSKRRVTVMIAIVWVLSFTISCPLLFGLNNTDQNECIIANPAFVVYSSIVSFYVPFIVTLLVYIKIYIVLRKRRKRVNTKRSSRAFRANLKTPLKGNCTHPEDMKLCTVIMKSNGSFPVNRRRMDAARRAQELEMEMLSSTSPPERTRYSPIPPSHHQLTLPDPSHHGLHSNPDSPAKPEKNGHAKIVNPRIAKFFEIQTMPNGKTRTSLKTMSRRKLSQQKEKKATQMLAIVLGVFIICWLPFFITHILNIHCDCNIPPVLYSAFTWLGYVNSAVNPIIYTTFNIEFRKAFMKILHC

Structure (SMILES) | pKi
CCN1CCC[C@@H]1CNC(=O)c1cc(S(N)(=O)=O)ccc1OC [Sulpiride-R] | 5.97
CCN1CCC[C@H]1CNC(=O)c1cc(S(N)(=O)=O)ccc1OC [Sulpiride-S] | 5.83
